# Experimental data: PubChem BioAssay AID1259407 (Chemical Carcinogenesis Research Information System (CCRIS), 2018)
# Calls of active or inactive are those of the source. No rule for the calls is given here.
# System: CCRIS mutagenicity, Ames/micronucleus/aberration tests
# Assay: CCRIS mutagenicity studies
# [1] = Test System: AMES SALMONELLA TYPHIMURIUM, Strain/Indicator: TA98, Metabolic Activation: NONE, Method: PREINCUBATION
# [2] = Test System: AMES SALMONELLA TYPHIMURIUM, Strain/Indicator: TA98, Metabolic Activation: RAT, LIVER, S-9, AROCLOR 1254, Method: PREINCUBATION
# [3] = Test System: AMES SALMONELLA TYPHIMURIUM, Strain/Indicator: TA100, Metabolic Activation: NONE, Method: PREINCUBATION
# [4] = Test System: AMES SALMONELLA TYPHIMURIUM, Strain/Indicator: TA100, Metabolic Activation: RAT, LIVER, S-9, AROCLOR 1254, Method: PREINCUBATION
# [5] = Test System: AMES SALMONELLA TYPHIMURIUM, Strain/Indicator: TA102, Metabolic Activation: NONE, Method: PREINCUBATION
# [6] = Test System: AMES SALMONELLA TYPHIMURIUM, Strain/Indicator: TA104, Metabolic Activation: NONE, Method: PREINCUBATION
# [7] = Test System: AMES SALMONELLA TYPHIMURIUM, Strain/Indicator: TA1535, Metabolic Activation: NONE, Method: PREINCUBATION
# [8] = Test System: AMES SALMONELLA TYPHIMURIUM, Strain/Indicator: TA1535, Metabolic Activation: RAT, LIVER, S-9, AROCLOR 1254, Method: PREINCUBATION
# [9] = Test System: AMES SALMONELLA TYPHIMURIUM, Strain/Indicator: TA1537, Metabolic Activation: NONE, Method: PREINCUBATION
# [10] = Test System: AMES SALMONELLA TYPHIMURIUM, Strain/Indicator: TA1537, Metabolic Activation: RAT, LIVER, S-9, AROCLOR 1254, Method: PREINCUBATION
# [11] = Test System: AMES SALMONELLA TYPHIMURIUM, Strain/Indicator: TA100, Metabolic Activation: RAT, LIVER, S-9, AROCLOR 1254, Method: STANDARD PLATE
# [12] = Test System: AMES SALMONELLA TYPHIMURIUM, Strain/Indicator: TA98, Metabolic Activation: NONE, Method: STANDARD PLATE
# [13] = Test System: AMES SALMONELLA TYPHIMURIUM, Strain/Indicator: TA100, Metabolic Activation: NONE, Method: STANDARD PLATE
structure (smiles),measurement,setting,value
Nc1nc(=O)n([C@H]2C[C@H](O)[C@@H](CO)O2)cc1I,mutagenic call,"Test System: AMES SALMONELLA TYPHIMURIUM, Strain/Indicator: TA97, Metabolic Activation: NONE, Method: PREINCUBATION",inactive; negative
same,mutagenic call,"Test System: AMES SALMONELLA TYPHIMURIUM, Strain/Indicator: TA97, Metabolic Activation: RAT, LIVER, S-9, AROCLOR 1254, Method: PREINCUBATION",inactive; negative
same,mutagenic call,[1],inactive; negative
same,mutagenic call,[2],inactive; negative
same,mutagenic call,[3],inactive; negative
same,mutagenic call,[4],inactive; negative
same,mutagenic call,[5],inactive; negative
same,mutagenic call,"Test System: AMES SALMONELLA TYPHIMURIUM, Strain/Indicator: TA102, Metabolic Activation: RAT, LIVER, S-9, AROCLOR 1254, Method: PREINCUBATION",inactive; negative
same,mutagenic call,[6],inactive; negative
same,mutagenic call,"Test System: AMES SALMONELLA TYPHIMURIUM, Strain/Indicator: TA104, Metabolic Activation: RAT, LIVER, S-9, AROCLOR 1254, Method: PREINCUBATION",inactive; negative
same,mutagenic call,[7],inactive; negative
same,mutagenic call,[8],inactive; negative
same,mutagenic call,[9],inactive; negative
same,mutagenic call,[10],inactive; negative
same,mutagenic call,"Test System: AMES SALMONELLA TYPHIMURIUM, Strain/Indicator: TA1538, Metabolic Activation: NONE, Method: PREINCUBATION",inactive; negative
same,mutagenic call,"Test System: AMES SALMONELLA TYPHIMURIUM, Strain/Indicator: TA1538, Metabolic Activation: RAT, LIVER, S-9, AROCLOR 1254, Method: PREINCUBATION",inactive; negative
same,mutagenic call,"Test System: CHINESE HAMSTER V-79, Strain/Indicator: V-79/8-AZAGUANINE, Metabolic Activation: NONE",inactive; negative
c1ccc2c(c1)Cc1c-2ccc2ccc3ccccc3c12,mutagenic call,[11],active; positive
Clc1c(Cl)c(Cl)c2ccccc2c1Cl,mutagenic call,"Test System: AMES SALMONELLA TYPHIMURIUM, Strain/Indicator: TA98, Metabolic Activation: HAMSTER, LIVER, S-9, AROCLOR 1254, Method: PREINCUBATION",inactive; negative
same,mutagenic call,[1],inactive; negative
same,mutagenic call,[2],inactive; negative
same,mutagenic call,"Test System: AMES SALMONELLA TYPHIMURIUM, Strain/Indicator: TA100, Metabolic Activation: HAMSTER, LIVER, S-9, AROCLOR 1254, Method: PREINCUBATION",inactive; negative
same,mutagenic call,[3],inactive; negative
same,mutagenic call,[4],inactive; negative
same,mutagenic call,"Test System: AMES SALMONELLA TYPHIMURIUM, Strain/Indicator: TA1535, Metabolic Activation: HAMSTER, LIVER, S-9, AROCLOR 1254, Method: PREINCUBATION",inactive; negative
same,mutagenic call,[7],inactive; negative
same,mutagenic call,[8],inactive; negative
same,mutagenic call,"Test System: AMES SALMONELLA TYPHIMURIUM, Strain/Indicator: TA1537, Metabolic Activation: HAMSTER, LIVER, S-9, AROCLOR 1254, Method: PREINCUBATION",inactive; negative
same,mutagenic call,[9],inactive; negative
same,mutagenic call,[10],inactive; negative
Cc1c2ccccc2cc2ccc3c(c12)C=CC(=O)C3=O,mutagenic call,"Test System: AMES SALMONELLA TYPHIMURIUM, Strain/Indicator: TA97A, Metabolic Activation: NONE, Method: PREINCUBATION",inactive; negative
same,mutagenic call,[1],active; positive
same,mutagenic call,[3],inactive; negative
same,mutagenic call,[5],inactive; negative
same,mutagenic call,[6],inactive; negative
CNP(=S)(N1CC1)N1CC1,mutagenic call,"Test System: AMES SALMONELLA TYPHIMURIUM, Strain/Indicator: G46, Metabolic Activation: HOST MEDIATED, Method: STANDARD PLATE",active; positive
CC1(C)CO1,mutagenic call,"Test System: AMES SALMONELLA TYPHIMURIUM, Strain/Indicator: TA100, Metabolic Activation: NONE, Method: FLASK ASSAY",active; positive
same,mutagenic call,"Test System: AMES SALMONELLA TYPHIMURIUM, Strain/Indicator: TA100, Metabolic Activation: NONE, Method: FLASK VAPORIZATION",active; positive
same,mutagenic call,"Test System: AMES SALMONELLA TYPHIMURIUM, Strain/Indicator: TA100, Metabolic Activation: RAT, LIVER, S-9, AROCLOR 1254, Method: FLASK ASSAY",active; positive
same,mutagenic call,"Test System: AMES SALMONELLA TYPHIMURIUM, Strain/Indicator: TA100, Metabolic Activation: RAT, LIVER, S-9, AROCLOR 1254, Method: FLASK VAPORIZATION",active; positive
same,mutagenic call,"Test System: AMES SALMONELLA TYPHIMURIUM, Strain/Indicator: TA102, Metabolic Activation: NONE, Method: FLASK ASSAY",active; positive
same,mutagenic call,"Test System: AMES SALMONELLA TYPHIMURIUM, Strain/Indicator: TA102, Metabolic Activation: RAT, LIVER, S-9, AROCLOR 1254, Method: FLASK ASSAY",active; positive
same,mutagenic call,"Test System: AMES SALMONELLA TYPHIMURIUM, Strain/Indicator: TA1535, Metabolic Activation: NONE, Method: FLASK ASSAY",active; positive
same,mutagenic call,"Test System: AMES SALMONELLA TYPHIMURIUM, Strain/Indicator: TA1535, Metabolic Activation: NONE, Method: FLASK VAPORIZATION",active; positive
same,mutagenic call,"Test System: AMES SALMONELLA TYPHIMURIUM, Strain/Indicator: TA1535, Metabolic Activation: RAT, LIVER, S-9, AROCLOR 1254, Method: FLASK ASSAY",active; positive
same,mutagenic call,"Test System: AMES SALMONELLA TYPHIMURIUM, Strain/Indicator: TA1535, Metabolic Activation: RAT, LIVER, S-9, AROCLOR 1254, Method: FLASK VAPORIZATION",active; positive
COc1ccc2cc(CCC(C)=O)ccc2c1,mutagenic call,"Test System: AMES SALMONELLA TYPHIMURIUM, Strain/Indicator: TA97, Metabolic Activation: NONE, Method: STANDARD PLATE",inactive; negative
same,mutagenic call,"Test System: AMES SALMONELLA TYPHIMURIUM, Strain/Indicator: TA97, Metabolic Activation: S-9, Method: STANDARD PLATE",inactive; negative
same,mutagenic call,[12],inactive; negative
same,mutagenic call,"Test System: AMES SALMONELLA TYPHIMURIUM, Strain/Indicator: TA98, Metabolic Activation: S-9, Method: STANDARD PLATE",inactive; negative
same,mutagenic call,[13],inactive; negative
same,mutagenic call,"Test System: AMES SALMONELLA TYPHIMURIUM, Strain/Indicator: TA100, Metabolic Activation: S-9, Method: STANDARD PLATE",inactive; negative
same,mutagenic call,"Test System: AMES SALMONELLA TYPHIMURIUM, Strain/Indicator: TA102, Metabolic Activation: NONE, Method: STANDARD PLATE",inactive; negative
same,mutagenic call,"Test System: AMES SALMONELLA TYPHIMURIUM, Strain/Indicator: TA102, Metabolic Activation: S-9, Method: STANDARD PLATE",inactive; negative
CC(=O)OCCCCCCCCONC(=O)c1ccccc1,mutagenic call,[12],active; positive
same,mutagenic call,[13],active; positive
same,mutagenic call,"Test System: AMES SALMONELLA TYPHIMURIUM, Strain/Indicator: TA100, Metabolic Activation: RAT, S-9, AROCLOR, Method: STANDARD PLATE",inactive; negative
O=C1C(c2[nH]c3ccccc3c2O)=Nc2ccccc21,mutagenic call,[12],inactive; negative
same,mutagenic call,"Test System: AMES SALMONELLA TYPHIMURIUM, Strain/Indicator: TA98, Metabolic Activation: RAT, LIVER, S-9, AROCLOR 1254, Method: STANDARD PLATE",active; positive
same,mutagenic call,[13],inactive; negative
same,mutagenic call,[11],inactive; negative
